Test system: MCF-10A epithelial cells
Assay: Cell uptake in MCF-10A (normal cell control)
Assay type: cell-based
Settings: all concentrations tested
Description: Referring now to FIGS. 6A-6B, after confirming the structure and purity of the compound, further biological evaluation was performed. Preferential cancer cell uptake was evaluated in human breast cancer cells MCF-7 compared with MCF-10A epithelial cells. […] The cancer cell uptake was also confirmed by confocal microscopy. The concentration and constitutional stability of the compound in cancer cells was established by lysing the MCF-7 incubated with 5 μM of compound for 4 hrs. […] Inherent toxicity of the compound to both normal and cancer cells was evaluated using HMCD and 1-amino-1-carbadodecaborate as controls.

`CC1(C)C(/C=C/C2=C(Cl)C(=C/C=C3/N(CCCCCC(=O)O)c4ccccc4C3(C)C)/CCC2)=[N+](CCCCS(=O)(=O)[O-])c2ccccc21` [parent HMCD] was tested, and the “uptake in MCF-10A cells” value was “no or poor uptake”.

Source: patent publication US20250215021A1, “SYSTEMS AND METHODS UTILIZING THERANOSTIC AGENTS FOR BPCT AND BNCT FOR TARGETED CANCER TREATMENT” (University of Virginia Patent Foundation, priority 2022, published 2025)
